Earlier results in patent publication US20050065127A1, “2-Alkylidene-19-nor-vitamin D derivatives for the treatment of osteosarcoma” (Pfizer Inc., priority 2003, published 2005).

Test system: serum calcium (bone calcium mobilization)
Conditions: chronic mode, 7 days, rats; 20S compound at 130 pmol/day

For `C=C1[C@H](O)CC(=C/C=C2\CCC[C@]3(C)[C@@H]([C@H](C)CCCC(C)(C)O)CC[C@@H]23)C[C@H]1O` [2-Methylene-19-Nor-1,25-(OH)2D3, 1α,25-dihydroxy-2-methylene-19-nor-vitamin D3], the “Bone calcium mobilization activity (serum calcium) relative to 1,25-(OH)2D3” value is given as 10-100 times.
